Test results as given in ChEMBL document CHEMBL1201862, “PubChem BioAssay data set” (2004).
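Results reflect a 48-hour exposure of cells in 96-well plates to compound at five concentrations. GI50 marks 50% less growth.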 Calls of active or inactive are those of the source. No stated cut-off is given here; in the data, active = GI50 up to about 1.1 µM and inactive = higher.

Experiments:
Test in all cases: growth of human tumour cells (NCI), 48 h
[1] = tested on: OVCAR-4
[2] = tested on: Hs-578T
[3] = tested on: SNB-75
[4] = tested on: COLO 205
[5] = tested on: DU-145
[6] = tested on: MDA-MB-231
[7] = tested on: SK-MEL-5
[8] = tested on: HCT-15
[9] = tested on: 786-0
[10] = tested on: MDA-N
[11] = tested on: CAKI-1
[12] = tested on: SK-MEL-2
[13] = tested on: NCI-H460
[14] = tested on: HCC 2998
[15] = tested on: LOX IMVI
[16] = tested on: SF-295
[17] = tested on: RPMI-8226
[18] = tested on: HL-60
[19] = tested on: K562
[20] = tested on: SK-OV-3

N#Cc1c(Nc2nc3ccccc3s2)c2ccccc2n2c1nc1ccccc12
GI50 [1]: > 100 µM (inactive) | GI50 [2]: 45.5 µM (inactive) | GI50 [3]: 24.5 µM (inactive) | GI50 [4]: > 100 µM (inactive) | GI50 [5]: > 100 µM (inactive) | GI50 [6]: 48.4 µM (inactive) | GI50 [7]: > 100 µM (inactive) | GI50 [8]: > 100 µM | GI50 [9]: 29 µM (inactive) | GI50 [10]: > 100 µM (inactive) | GI50 [11]: > 100 µM (inactive) | GI50 [12]: > 100 µM (inactive) | GI50 [13]: > 100 µM (inactive) | GI50 [14]: > 100 µM (inactive) | GI50 [15]: > 100 µM (inactive) | GI50 [16]: 82 µM (inactive) | GI50 [17]: > 100 µM (inactive) | GI50 [18]: > 100 µM (inactive)

CN(C)CCNS(=O)(=O)c1ccc(N)cc1
GI50 [19]: > 100 µM (inactive) | GI50 [1]: > 100 µM (inactive) | GI50 [20]: > 100 µM (inactive) | GI50 [2]: > 100 µM (inactive) | GI50 [3]: > 100 µM (inactive) | GI50 [4]: > 100 µM (inactive) | GI50 [5]: > 100 µM (inactive) | GI50 [6]: > 100 µM (inactive) | GI50 [7]: > 100 µM (inactive) | GI50 [8]: > 100 µM | GI50 [9]: > 100 µM (inactive) | GI50 [10]: > 100 µM (inactive) | GI50 [11]: > 100 µM (inactive) | GI50 [12]: 18 µM (inactive) | GI50 [13]: > 100 µM (inactive) | GI50 [14]: > 100 µM (inactive) | GI50 [16]: > 100 µM (inactive) | GI50 [17]: > 100 µM (inactive) | GI50 [18]: > 100 µM (inactive)

N#CC(N)c1ccc(OCCCCCCCCCCOc2ccc(C(N)C#N)cc2)cc1 (stereo not drawn)
GI50 [19]: > 100 µM (inactive) | GI50 [1]: > 100 µM (inactive) | GI50 [20]: > 100 µM (inactive) | GI50 [2]: > 100 µM (inactive) | GI50 [4]: > 100 µM (inactive) | GI50 [5]: > 100 µM (inactive) | GI50 [6]: > 100 µM (inactive) | GI50 [7]: > 100 µM (inactive) | GI50 [8]: > 100 µM | GI50 [9]: > 100 µM (inactive) | GI50 [10]: > 100 µM (inactive) | GI50 [11]: > 100 µM (inactive) | GI50 [12]: 81.8 µM (inactive) | GI50 [13]: > 100 µM (inactive) | GI50 [14]: > 100 µM (inactive) | GI50 [15]: > 100 µM (inactive) | GI50 [16]: > 100 µM (inactive) | GI50 [18]: 52.1 µM (inactive)

CN(/N=C/c1cccc2cccnc12)c1ccc(Cl)cc1[N+](=O)[O-]
GI50 [19]: > 100 µM (inactive) | GI50 [1]: > 100 µM (inactive) | GI50 [20]: > 100 µM (inactive) | GI50 [2]: 81.5 µM (inactive) | GI50 [3]: > 100 µM (inactive) | GI50 [4]: > 100 µM (inactive) | GI50 [5]: > 100 µM (inactive) | GI50 [6]: > 100 µM (inactive) | GI50 [7]: > 100 µM (inactive) | GI50 [8]: > 100 µM | GI50 [9]: > 100 µM (inactive) | GI50 [10]: > 100 µM (inactive) | GI50 [11]: 45.2 µM (inactive) | GI50 [12]: > 100 µM (inactive) | GI50 [13]: 45.7 µM (inactive) | GI50 [14]: > 100 µM (inactive) | GI50 [16]: > 100 µM (inactive) | GI50 [17]: > 100 µM (inactive) | GI50 [18]: > 100 µM (inactive)

COC(=O)c1ccc(/C=C2\CCc3ccccc3C2=O)cc1
GI50 [19]: > 100 µM (inactive) | GI50 [1]: > 100 µM (inactive) | GI50 [20]: > 100 µM (inactive) | GI50 [2]: > 100 µM (inactive) | GI50 [3]: > 100 µM (inactive) | GI50 [4]: > 100 µM (inactive) | GI50 [5]: > 100 µM (inactive) | GI50 [6]: > 100 µM (inactive) | GI50 [7]: > 100 µM (inactive) | GI50 [8]: > 100 µM | GI50 [9]: > 100 µM (inactive) | GI50 [10]: > 100 µM (inactive) | GI50 [11]: > 100 µM (inactive) | GI50 [13]: > 100 µM (inactive) | GI50 [14]: > 100 µM (inactive) | GI50 [15]: > 100 µM (inactive) | GI50 [16]: > 100 µM (inactive) | GI50 [17]: > 100 µM (inactive) | GI50 [18]: > 100 µM (inactive)

O=C1c2ccc(O)cc2OC(c2cc(O)c(O)c(O)c2)C1O (stereo not drawn) [DIHYDROBINETIN]
GI50 [1]: 37.9 µM (inactive) | GI50 [20]: > 100 µM (inactive) | GI50 [2]: 70.1 µM (inactive) | GI50 [4]: 32.4 µM (inactive) | GI50 [5]: 47.3 µM (inactive) | GI50 [6]: 21.1 µM (inactive) | GI50 [7]: 33 µM (inactive) | GI50 [8]: 33.7 µM | GI50 [9]: 23.8 µM (inactive) | GI50 [10]: 18.4 µM (inactive) | GI50 [11]: 53.8 µM (inactive) | GI50 [12]: 33.1 µM (inactive) | GI50 [13]: 19.8 µM (inactive) | GI50 [14]: 31.6 µM (inactive) | GI50 [15]: 19.1 µM (inactive) | GI50 [16]: 21.8 µM (inactive) | GI50 [17]: 17.8 µM (inactive) | GI50 [18]: 19.9 µM (inactive)

CC(=O)Nc1ccc(C(=O)NN2C(=O)C(Cl)C2c2cc(Br)ccc2O)cc1 (stereo not drawn)
GI50 [19]: 6.41 µM (inactive) | GI50 [1]: 3.76 µM (inactive) | GI50 [20]: 4.42 µM (inactive) | GI50 [2]: 66.1 µM (inactive) | GI50 [3]: 44.4 µM (inactive) | GI50 [4]: 36.1 µM (inactive) | GI50 [5]: 6.14 µM (inactive) | GI50 [6]: 3.6 µM (inactive) | GI50 [7]: 5.04 µM (inactive) | GI50 [8]: 2.14 µM | GI50 [9]: 3.54 µM (inactive) | GI50 [10]: 9.16 µM (inactive) | GI50 [12]: 4.86 µM (inactive) | GI50 [13]: 3.09 µM (inactive) | GI50 [14]: 11.2 µM (inactive) | GI50 [16]: 3.66 µM (inactive) | GI50 [17]: 12.1 µM (inactive) | GI50 [18]: 2.71 µM (inactive)

COC(=O)c1c(C(=O)OC)c2ccccn2c1-c1cc(OC)c(Br)c(=O)o1
GI50 [19]: > 100 µM (inactive) | GI50 [1]: > 100 µM (inactive) | GI50 [20]: > 100 µM (inactive) | GI50 [2]: 37.2 µM (inactive) | GI50 [3]: 15.1 µM (inactive) | GI50 [4]: > 100 µM (inactive) | GI50 [5]: > 100 µM (inactive) | GI50 [6]: 83.8 µM (inactive) | GI50 [7]: > 100 µM (inactive) | GI50 [8]: > 100 µM | GI50 [9]: > 100 µM (inactive) | GI50 [10]: > 100 µM (inactive) | GI50 [12]: > 100 µM (inactive) | GI50 [13]: > 100 µM (inactive) | GI50 [14]: > 100 µM (inactive) | GI50 [15]: > 100 µM (inactive) | GI50 [16]: > 100 µM (inactive) | GI50 [17]: > 100 µM (inactive) | GI50 [18]: > 100 µM (inactive)
